The values that follow come from US20200268632A1, “ANTI-AGING AGENT AND ANTI-AGING METHOD” (priority 2017, published 2020).

Data set [1] can be described thus: Safety observation of the subjects during 24 weeks of ingestion (complaints, stool abnormality). It counts as in vivo, human. Conditions: healthy males and females aged 50 to 70, 100 or 200 mg/daily oral, ingestion for 24 weeks. The method, then:
(§1) Each group consisting of five healthy males and females aged 50 to 70 years in an unbiased age group ingested the above low dose capsule formulation once a day by 4 capsules for 24 weeks (total 10 subjects, a low dose group: 100 mg/daily ingestion). On the other hand, each group consisting of five healthy males and females aged 50 to 70 years in the unbiased age group ingested the above high dose capsule formulation once a day by 4 capsules for 24 weeks (total 10 subjects, a high dose group: 200 mg/daily ingestion). In order to conduct appropriate evaluations, those who had been regularly using medical products for chronic diseases, those who had been consuming healthy foods that may affect clinical research, and those who were currently participating in other clinical researches or clinical trials, or had participated in other clinical researches or clinical trials within the last three months were excluded from the subject for the evaluation. The capsule formulations were ingested at 10 am (between meals and fasting state) together with water or lukewarm water (oral administration).

The test system of data set [2] is melatonin. As to the kind of experiment: Evaluation of melatonin secretion promoting effect: melatonin concentration in plasma during 24 weeks of oral ingestion. It counts as in vivo, human. Conditions: for Change rate (24 weeks-0 weeks) of melatonin concentration in the plasma: mean ± SD. The method, then: In order to confirm a change in the melatonin quantity before and after ingestion of the nicotinamide mononucleotide, a test was conducted on healthy males and females aged 50 to 70 years.
As a sample of Working Example 1, a capsule formulation containing the nicotinamide mononucleotide and starch (100 mg (low dose) and 200 mg (high dose) of the nicotinamide mononucleotide in 4 capsules) (manufactured by SHINKOWA PHARMACEUTICAL Co., Ltd.) was used.
as §1
Measurement of the melatonin quantity in plasma was conducted by requesting the measurement to an external public organization according to a usual method. FIGS. 2a to 2c indicates transitions of the melatonin concentration (pg/ml) in the plasma for 24 weeks. FIG. 2a represents the transitions of the whole subjects; FIG. 2b represents the transitions of the male subjects; FIG. 2c represents the transitions of the female subjects. FIGS. 3a to 3c indicates change rates (%) of the blood melatonin concentration up to 24 weeks when the nicotinamide mononucleotide was orally administered to the subjects for 24 weeks. FIG. 3a represents the change rates of the whole subjects; FIG. 3b represents the change rates of the male subjects; FIG. 3c represents the change rates of the female subjects. Further, Table 1 indicates the numerical values of the melatonin concentration (pg/ml) in the plasma before the ingestion of the nicotinamide mononucleotide (0 weeks) and after the ingestion of the nicotinamide mononucleotide (24 weeks). In addition, the numerical values represent mean values ±standard deviation.

As for `NC(=O)c1ccc[n+]([C@@H]2O[C@H](COP(=O)([O-])O)[C@@H](O)[C@H]2O)c1` [nicotinamide mononucleotide], the “unidentified complaints (abdominal pain, nausea, vomiting, headache) or stool abnormality” value in data set [1] was “did not show any unidentified complaint”. The “Change rate (24 weeks-0 weeks) of melatonin concentration in the plasma” value in data set [2] (female subjects, high dose group (200 mg/daily, oral)) was determined as 6.03 ± 5.90 pg/mL; in data set [2] (female subjects, low dose group (100 mg/daily, oral)) it was 2.21 ± 3.19 pg/mL; in data set [2] (male subjects, high dose group (200 mg/daily, oral)), 2.86 ± 3.10 pg/mL; in data set [2] (male subjects, low dose group (100 mg/daily, oral)) it was 3.44 ± 3.57 pg/mL; in data set [2] (whole subjects, high dose group (200 mg/daily, oral)) it was 4.45 ± 4.75 pg/mL; in data set [2] (whole subjects, low dose group (100 mg/daily, oral)), 2.82 ± 3.26 pg/mL. For the same molecule, the “effect of ingestion on melatonin concentrations in plasma (FIGS. 2a-2c, 3a-3c)” value in data set [2] (healthy males and females aged 50 to 70, 100 or 200 mg/daily oral, up to 24 weeks) is “increased the melatonin concentrations in plasma at the high change rates”. Moreover, the “melatonin concentration in the plasma after ingestion compared to before ingestion, statistical significance” value in data set [2] (whole subjects, both the low dose group and the high dose group, 24 weeks, p<0.05) is given as “a significant difference was observed”.
